Drawing on PubChem BioAssay (NCI), this text covers TGI for 24 compounds.

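Values below derive from 48-hour exposures of cells grown in 96-well plates, with endpoints linearly interpolated between the two concentrations bracketing the appropriate inhibition level. The concentration for full growth arrest is given as TGI.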

Test systems include OVCAR-5 ovarian; SNB-19 CNS; K-562 leukemia; UO-31 renal; NCI-H226 lung; OVCAR-4 ovarian; SR leukemia; NCI-H23 lung; HOP-92 NSCLC.
Holding throughout (assay): NCI tumour cell line growth inhibition, 48 h

For the compound `CC1CC2=C(S(=O)(=O)c3ccccc3)CC(S(=O)(=O)c3ccccc3)(S(=O)(=O)c3ccccc3)CC21` (centres undefined), the TGI with OVCAR-5 ovarian, with SNB-19 CNS, in the experiment on K-562 leukemia, in the experiment on UO-31 renal, in the experiment with NCI-H226 lung and with OVCAR-4 ovarian was more than 100 µM in each case. The TGI in the experiment on SR leukemia and with NCI-H23 lung was more than 100 µM each time.
Take `O=C(c1cccs1)N1CCc2ccccc2C1`: the TGI with OVCAR-5 ovarian, in the experiment on SNB-19 CNS, in the experiment on K-562 leukemia, with UO-31 renal, in the experiment on NCI-H226 lung and in the experiment with SR leukemia was more than 100 µM each time. The TGI in the experiment with HOP-92 NSCLC and in the experiment with NCI-H23 lung was more than 100 µM each time.
Regarding `CCCCC1Cc2ccccc2-c2nc3ccccc3n21` (centres undefined), the TGI with OVCAR-5 ovarian worked out at 31.4 µM; in the experiment on K-562 leukemia it was 31.7 µM; with UO-31 renal, 36.1 µM; with NCI-H226 lung, 39.5 µM; with OVCAR-4 ovarian, 29.8 µM; in the experiment with SR leukemia, 24.3 µM. Moreover, the TGI with HOP-92 NSCLC amounted to 30.8 µM; in the experiment on NCI-H23 lung, 32 µM.
Take `CC1S/C(=N\N=C2/C(=O)Nc3ccc(Br)cc32)N(C2CCCCC2)C1=O` (centres undefined): the TGI is more than 100 µM in the experiment on OVCAR-5 ovarian; 14.8 µM in the experiment on SNB-19 CNS; more than 100 µM in the experiment on K-562 leukemia; 3.08 µM in the experiment on UO-31 renal; 18 µM in the experiment with NCI-H226 lung; 4.89 µM with OVCAR-4 ovarian. In addition, the TGI with SR leukemia amounted to 39.4 µM; in the experiment on HOP-92 NSCLC it was 25.4 µM; with NCI-H23 lung, 15.6 µM.
With `CCOC(=O)c1ccc(NCc2ccc3oc(=O)c(-c4ccccc4)nc3c2)cc1`, the TGI was more than 100 µM in the experiment with OVCAR-5 ovarian; more than 100 µM in the experiment on SNB-19 CNS; 85.8 µM in the experiment on K-562 leukemia; more than 100 µM in the experiment on UO-31 renal; more than 100 µM in the experiment on NCI-H226 lung; 54.1 µM in the experiment with OVCAR-4 ovarian. For the same compound, the TGI with SR leukemia is more than 100 µM; in the experiment with HOP-92 NSCLC it was 83 µM; in the experiment with NCI-H23 lung, 44.5 µM.
In the case of `CCOC1=NC(O)c2cccn2-c2sccc21` (centres undefined), the TGI in the experiment with OVCAR-5 ovarian, in the experiment on SNB-19 CNS, in the experiment on K-562 leukemia, with UO-31 renal, with OVCAR-4 ovarian and in the experiment with SR leukemia was more than 100 µM throughout. Moreover, the TGI in the experiment on HOP-92 NSCLC and with NCI-H23 lung was more than 100 µM in each case.
Regarding `O=c1cc(-c2ccc(Oc3ccccc3)cc2)[nH]c2cc3c(cc12)OCO3`, the TGI with SNB-19 CNS, with K-562 leukemia, in the experiment on UO-31 renal, in the experiment with NCI-H226 lung, in the experiment with OVCAR-4 ovarian and in the experiment on SR leukemia was more than 100 µM in each case. The compound further yielded a TGI with NCI-H23 lung of more than 100 µM.
As for `CC(=O)ONC(C(=O)C(C)(C)C)C(=O)C(C)(C)C`, the TGI in the experiment on OVCAR-5 ovarian, in the experiment with SNB-19 CNS, in the experiment on K-562 leukemia, with UO-31 renal, with NCI-H226 lung and in the experiment on OVCAR-4 ovarian was more than 100 µM throughout. Further, the TGI with HOP-92 NSCLC and in the experiment on NCI-H23 lung was more than 100 µM in each case.
`CSc1cc(Cl)c(C)cc1S(=O)(=O)NC(=O)NNc1cccc(C(F)(F)F)n1`: the TGI with OVCAR-5 ovarian, in the experiment on SNB-19 CNS, in the experiment with K-562 leukemia, in the experiment on NCI-H226 lung, in the experiment on OVCAR-4 ovarian and in the experiment on SR leukemia was more than 100 µM throughout.
Consider `COc1ccc(S(=O)(=O)c2ccccc2[N+](=O)[O-])cc1`, for which the TGI in the experiment with OVCAR-5 ovarian, in the experiment with SNB-19 CNS, in the experiment on K-562 leukemia, in the experiment with UO-31 renal, in the experiment with NCI-H226 lung and in the experiment on OVCAR-4 ovarian was more than 100 µM each time. For the same compound, the TGI with SR leukemia, in the experiment with HOP-92 NSCLC and in the experiment with NCI-H23 lung was more than 100 µM throughout.
Regarding `Cc1ccc2c(c1)CC1(Cc3ccccc3C1=O)C2=O` (centres undefined), the TGI in the experiment with OVCAR-5 ovarian, with SNB-19 CNS, with K-562 leukemia, with UO-31 renal, with NCI-H226 lung and in the experiment on OVCAR-4 ovarian was more than 100 µM in each case. Moreover, the TGI in the experiment with SR leukemia, in the experiment on HOP-92 NSCLC and with NCI-H23 lung was more than 100 µM each time.
For the compound `CCO/C=N\C1=C(C#N)SC2=N/C(=C\c3ccc(OC)cc3)C(=O)N21`, the TGI in the experiment with OVCAR-5 ovarian is more than 100 µM; in the experiment on SNB-19 CNS, more than 100 µM; in the experiment on K-562 leukemia, more than 100 µM; with UO-31 renal, more than 100 µM; with NCI-H226 lung, more than 100 µM; with OVCAR-4 ovarian, 65.6 µM. Also, the TGI in the experiment on SR leukemia, in the experiment with HOP-92 NSCLC and in the experiment with NCI-H23 lung was more than 100 µM throughout.
On to `O=[N+]([O-])c1ccc(S(=O)(=O)n2c3ccc(Br)cc3c3nc4ccccc4nc32)cc1`, for which the TGI in the experiment with OVCAR-5 ovarian, with SNB-19 CNS, with K-562 leukemia, with UO-31 renal, with NCI-H226 lung and with OVCAR-4 ovarian was more than 100 µM in each case. Besides, the TGI in the experiment on SR leukemia, with HOP-92 NSCLC and with NCI-H23 lung was more than 100 µM throughout.
In the case of `Nc1nc([O-])c2c(n1)[n+](C1OC(CO)C(O)C1O)cn2CCO` (centres undefined), the TGI in the experiment with OVCAR-5 ovarian, in the experiment on K-562 leukemia, with UO-31 renal, with NCI-H226 lung, in the experiment with OVCAR-4 ovarian and in the experiment on SR leukemia was more than 100 µM throughout. The TGI in the experiment with HOP-92 NSCLC is more than 100 µM.
In the case of `CN=C(SC)N(C)c1nc(=[N+](C)C)ss1`, the TGI is more than 100 µM with OVCAR-5 ovarian; more than 100 µM in the experiment with SNB-19 CNS; 69 µM in the experiment on K-562 leukemia; more than 100 µM in the experiment on UO-31 renal; more than 100 µM in the experiment on NCI-H226 lung; more than 100 µM with SR leukemia. Besides, the TGI in the experiment with HOP-92 NSCLC and in the experiment on NCI-H23 lung was more than 100 µM each time.
Regarding `COc1cc(OC)c2c(C)cc(=O)oc2c1`, the TGI in the experiment with OVCAR-5 ovarian was more than 100 µM; in the experiment with SNB-19 CNS, more than 100 µM; in the experiment on K-562 leukemia, more than 100 µM; with UO-31 renal it was 79.5 µM; in the experiment on NCI-H226 lung, more than 100 µM; in the experiment on OVCAR-4 ovarian, more than 100 µM. The TGI with SR leukemia and in the experiment with NCI-H23 lung was more than 100 µM each time.
Turning to `CC(=O)OC1C(Oc2c(C)cc3c(c2O)[C@@H](C)CC[C@@H]3[C@@H](C)CCC=C(C)C)OCC(O)C1O` (some centres undefined), the TGI amounted to 30.6 µM in the experiment with OVCAR-5 ovarian; 35.1 µM with SNB-19 CNS; 39.5 µM with K-562 leukemia; 32.2 µM in the experiment with UO-31 renal; 40.6 µM in the experiment on NCI-H226 lung; 47.3 µM in the experiment with SR leukemia. In the experiment on NCI-H23 lung, this compound gave a TGI of 34.3 µM.
Take `O=C(/C=C/c1ccc2ccccc2c1)NCc1ccc(C(=O)NCCc2ccccc2)cc1`: the TGI with OVCAR-5 ovarian, in the experiment with SNB-19 CNS, in the experiment with K-562 leukemia, in the experiment on UO-31 renal, in the experiment with NCI-H226 lung and in the experiment with OVCAR-4 ovarian was more than 100 µM each time. In addition, the TGI with SR leukemia, in the experiment on HOP-92 NSCLC and with NCI-H23 lung was more than 100 µM throughout.
`N#Cc1[nH]c(=O)n(-c2ccccc2)c1N`: the TGI with OVCAR-5 ovarian, in the experiment with SNB-19 CNS, in the experiment with K-562 leukemia, in the experiment with UO-31 renal, in the experiment with NCI-H226 lung and in the experiment with OVCAR-4 ovarian was more than 10 µM each time. In addition, the TGI in the experiment with SR leukemia and in the experiment on NCI-H23 lung was more than 10 µM in each case.
As to `CN(C)CC1CCCC(CN(C)C)C1OC(=O)c1ccccc1` (centres undefined), the TGI in the experiment on OVCAR-5 ovarian, in the experiment on K-562 leukemia, in the experiment on UO-31 renal, in the experiment on NCI-H226 lung, in the experiment with OVCAR-4 ovarian and in the experiment with SR leukemia was more than 100 µM in each case. The TGI with HOP-92 NSCLC and with NCI-H23 lung was more than 100 µM in each case.
Take `C[Si](C)(C)OC1CC(=O)OC1n1cc(F)c(=O)[nH]c1=O` (centres undefined): the TGI in the experiment with OVCAR-5 ovarian, in the experiment on SNB-19 CNS, in the experiment on K-562 leukemia, in the experiment with UO-31 renal, with NCI-H226 lung and with OVCAR-4 ovarian was more than 100 µM in each case. Further, the TGI in the experiment on SR leukemia is 9.38 µM; in the experiment with NCI-H23 lung, more than 100 µM.
As to `CCOC(=O)CNC(=O)N(CC)C12CC3CC(CC(C3)C1)C2`, the TGI with OVCAR-5 ovarian stood at 369 µM; in the experiment with SNB-19 CNS, 430 µM; with K-562 leukemia it was 409 µM; in the experiment with UO-31 renal, 358 µM; with NCI-H226 lung, 371 µM; in the experiment with OVCAR-4 ovarian it was 536 µM. For the same compound, the TGI in the experiment on HOP-92 NSCLC turned out to be 222 µM; in the experiment with NCI-H23 lung, 419 µM.
On to `CCN(CC)C1CC(O[C@H]2C[C@](O)(C(=O)CO)Cc3c(O)c4c(c(O)c32)C(=O)c2c(OC)cccc2C4=O)OC(C)C1O` (some centres undefined), for which the TGI with OVCAR-5 ovarian stood at 0.561 µM; in the experiment on SNB-19 CNS, 0.754 µM; in the experiment with K-562 leukemia it was 0.947 µM; in the experiment on UO-31 renal, 0.264 µM; with NCI-H226 lung, 0.044 µM; in the experiment with OVCAR-4 ovarian, 0.255 µM. In addition, the TGI came out at 0.268 µM in the experiment with HOP-92 NSCLC and 0.154 µM in the experiment on NCI-H23 lung.
With `CC1=CCC(O)C=CC(C)C(O)C(C)C=C(C)C(=O)c2c(O)c(C)cc3c2C(=O)C(N)=C(NC(=O)/C=C\C=C/C=CC(C)C(O)CC1=O)C3=O` (centres undefined), the TGI in the experiment with OVCAR-5 ovarian, with SNB-19 CNS, in the experiment with K-562 leukemia, in the experiment on UO-31 renal, in the experiment with NCI-H226 lung and with OVCAR-4 ovarian was more than 100 µM each time. Moreover, the TGI in the experiment with HOP-92 NSCLC and in the experiment with NCI-H23 lung was more than 100 µM each time.
